From PubChem BioAssay AID1918993 (Molecular Pharmacology Branch, DTP, NCI, 2023)

System: 233499-124-R-J3-PDC complex spheroid growth
Test: Anticancer human tumor 233499-124-R-J3-PDC patient-derived colon adenocarcinoma cell line growth inhibition [AhR]
Settings: for IC50: curve of first compound; for viability, T/C: stronger effect = lower value
Summary of the method: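 Spheroids combined tumor cells with HUVEC endothelial cells and human MSCs as stroma. AhR antagonists were paired with standard or investigational drugs, each dosed in half-log steps down from near clinical Cmax, or from 10 microM where Cmax was unknown.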

[1] = second compound 0.1 µM, first compound 0.0316 µM
[2] = second compound 0.1 µM, first compound 0.1 µM
[3] = second compound 0.1 µM, first compound 0.316 µM
[4] = second compound 0.1 µM, first compound 1 µM
[5] = second compound 0.1 µM, first compound 3.16 µM
[6] = second compound 0.1 µM, first compound 10 µM
[7] = second compound 0.316 µM, first compound 0.0316 µM
[8] = second compound 0.316 µM, first compound 0.1 µM
[9] = second compound 0.316 µM, first compound 0.316 µM
[10] = second compound 0.316 µM, first compound 1 µM
[11] = second compound 0.316 µM, first compound 3.16 µM
[12] = second compound 0.316 µM, first compound 10 µM
[13] = second compound 1 µM, first compound 0.0316 µM
[14] = second compound 1 µM, first compound 0.1 µM
[15] = second compound 1 µM, first compound 0.316 µM
[16] = second compound 1 µM, first compound 1 µM
[17] = second compound 1 µM, first compound 3.16 µM
[18] = second compound 1 µM, first compound 10 µM
[19] = second compound 3.16 µM, first compound 0.0316 µM
[20] = second compound 3.16 µM, first compound 0.1 µM
[21] = second compound 3.16 µM, first compound 0.316 µM
[22] = second compound 3.16 µM, first compound 1 µM
[23] = second compound 3.16 µM, first compound 3.16 µM
[24] = second compound 3.16 µM, first compound 10 µM
[25] = second compound 10 µM, first compound 0.0316 µM
[26] = second compound 10 µM, first compound 0.1 µM
[27] = second compound 10 µM, first compound 0.316 µM
[28] = second compound 10 µM, first compound 1 µM
[29] = second compound 10 µM, first compound 3.16 µM
[30] = second compound 10 µM, first compound 10 µM
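Also: spheroids exposed to agents for seven days before reading.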

SMILES | IC50 (second compound 0.1 µM) | IC50 (second compound 0.316 µM) | IC50 (second compound 1 µM) | IC50 (second compound 3.16 µM) | IC50 (second compound 10 µM) | viability, T/C [1] | viability, T/C [2] | viability, T/C [3] | viability, T/C [4] | viability, T/C [5] | viability, T/C [6] | viability, T/C [7] | viability, T/C [8] | viability, T/C [9] | viability, T/C [13] | viability, T/C [14] | viability, T/C [19] | viability, T/C [20] | viability, T/C [25] | viability, T/C [26] | other results
COc1cc(Nc2ncc3c(n2)-c2ccc(Cl)cc2C(c2c(F)cccc2OC)=NC3)ccc1C(=O)O + Cc1cncc(-c2nc(NCCc3c[nH]c4ccccc34)c3ncn(C(C)C)c3n2)c1 | > 10000 nM | > 10000 nM | > 10000 nM | > 10000 nM | < 31.6 nM | 81% | 71.7% | 81.5% | 100% | 89% | 84.2% | 84.8% | 56.9% | 83.2% | 78% | 68.4% | 60.5% | 50.9% | 8.18% | 22.4% | viability, T/C [10]: 76.9%; viability, T/C [11]: 75.6%; viability, T/C [12]: 82.5%; viability, T/C [15]: 77.8%; viability, T/C [16]: 77.9%; viability, T/C [17]: 70.1%; viability, T/C [18]: 87.6%; viability, T/C [21]: 76.8%; viability, T/C [22]: 67.2%; viability, T/C [23]: 58%; viability, T/C [24]: 71.7%; viability, T/C [27]: 26.9%; viability, T/C [28]: 10.4%; viability, T/C [29]: 29.2%; viability, T/C [30]: 39.9%
Cn1ncnc1C1c2n[nH]c(=O)c3cc(F)cc(c23)NC1c1ccc(F)cc1 (stereo not given) + Cc1cncc(-c2nc(NCCc3c[nH]c4ccccc34)c3ncn(C(C)C)c3n2)c1 | > 100 nM | > 100 nM | > 100 nM | > 100 nM | < 0.316 nM | 88.7% | 101% |  |  |  |  | 78.3% | 96.2% |  | 76.5% | 91.4% | 76.1% | 71.3% | 14.8% | 18.6% | viability, T/C (second compound 0.1 µM, first compound 0.000316 µM): 93.4%; viability, T/C (second compound 0.1 µM, first compound 0.001 µM): 97.3%; viability, T/C (second compound 0.1 µM, first compound 0.00316 µM): 109%; viability, T/C (second compound 0.1 µM, first compound 0.01 µM): 108%; viability, T/C (second compound 0.316 µM, first compound 0.000316 µM): 88.7%; viability, T/C (second compound 0.316 µM, first compound 0.001 µM): 81.3%; viability, T/C (second compound 0.316 µM, first compound 0.00316 µM): 93.5%; viability, T/C (second compound 0.316 µM, first compound 0.01 µM): 87.3%; viability, T/C (second compound 1 µM, first compound 0.000316 µM): 79.4%; viability, T/C (second compound 1 µM, first compound 0.001 µM): 75.9%; viability, T/C (second compound 1 µM, first compound 0.00316 µM): 78.8%; viability, T/C (second compound 1 µM, first compound 0.01 µM): 78%; viability, T/C (second compound 3.16 µM, first compound 0.000316 µM): 84.4%; viability, T/C (second compound 3.16 µM, first compound 0.001 µM): 81.2%; viability, T/C (second compound 3.16 µM, first compound 0.00316 µM): 73.2%; viability, T/C (second compound 3.16 µM, first compound 0.01 µM): 66.6%; viability, T/C (second compound 10 µM, first compound 0.000316 µM): 23.2%; viability, T/C (second compound 10 µM, first compound 0.001 µM): 13.3%; viability, T/C (second compound 10 µM, first compound 0.00316 µM): 23.2%; viability, T/C (second compound 10 µM, first compound 0.01 µM): 26.1%
NS(=O)(=O)OCC1CC(n2ccc3c(NC4CCc5ccccc54)ncnc32)CC1O (stereo not given) + Cc1cncc(-c2nc(NCCc3c[nH]c4ccccc34)c3ncn(C(C)C)c3n2)c1 | 622 nM | 523 nM | 515 nM | 203 nM | < 31.6 nM | 98.7% | 107% | 98.2% | 16.1% | 3.52% | 1.45% | 103% | 101% | 81.4% | 102% | 79.7% | 93.6% | 74.9% | 20.5% | 17.1% | viability, T/C [10]: 9.63%; viability, T/C [11]: 2.6%; viability, T/C [12]: 2.07%; viability, T/C [15]: 83.1%; viability, T/C [16]: 4.87%; viability, T/C [17]: 3.05%; viability, T/C [18]: 5.22%; viability, T/C [21]: 35.1%; viability, T/C [22]: 3.64%; viability, T/C [23]: 2.03%; viability, T/C [24]: 1%; viability, T/C [27]: 23.3%; viability, T/C [28]: 1.9%; viability, T/C [29]: 1.17%; viability, T/C [30]: 0.46%
O=C(C=Cc1cccc(S(=O)(=O)Nc2ccccc2)c1)NO + Cc1cncc(-c2nc(NCCc3c[nH]c4ccccc34)c3ncn(C(C)C)c3n2)c1 | 5270 nM | 5760 nM | 5460 nM | 3100 nM | < 31.6 nM | 103% | 96.8% | 111% | 122% | 82% | 9.95% | 84.6% | 98.7% | 94.4% | 84.6% | 97.7% | 78.6% | 78.2% | 7.06% | 6.48% | viability, T/C [10]: 105%; viability, T/C [11]: 107%; viability, T/C [12]: 5.83%; viability, T/C [15]: 88.8%; viability, T/C [16]: 103%; viability, T/C [17]: 95.5%; viability, T/C [18]: 1.53%; viability, T/C [21]: 80.8%; viability, T/C [22]: 93.2%; viability, T/C [23]: 49.4%; viability, T/C [24]: 3.18%; viability, T/C [27]: 7.01%; viability, T/C [28]: 2.38%; viability, T/C [29]: 1.78%; viability, T/C [30]: 0.38%
